Reference: US20170333591A9, “ABSORBENT ARTICLE COMPRISING MALODOR REDUCTION COMPOSITIONS” (The Procter & Gamble Company, priority 2014, published 2017)

Test: Log of liquid dish neat product liquid-air partition coefficient
Type: physicochemical
Conditions: not given

| Compound | Comment Code: Log of liquid dish neat product liquid-air partition coefficient |
| --- | --- |
| CC=Cc1ccc(O)c(OC)c1 [Material 214] | K (Log of liquid dish neat product liquid-air partition coefficient greater than or equal to 7) |
| CC(=O)[C@@]1(C)CC2=C(CCCC2(C)C)C[C@@H]1C [Material 215] | K (Log of liquid dish neat product liquid-air partition coefficient greater than or equal to 7) |
| CC(C)C(=O)OC1CC2CCC1(C)C2(C)C (stereo not shown) [Material 229] | K (Log of liquid dish neat product liquid-air partition coefficient greater than or equal to 7) |
| CC1C2CC(CC2C2CCC(O)CC2)C1(C)C (stereo not shown) [Material 230] | K (Log of liquid dish neat product liquid-air partition coefficient greater than or equal to 7) |
| CCCCCCCC(=O)OCCC(C)C [Material 237] | K (Log of liquid dish neat product liquid-air partition coefficient greater than or equal to 7) |
| CC1(C)C2=C(CO)CCC(C)(C)C23CCC1C3 (stereo not shown) [Material 248] | K (Log of liquid dish neat product liquid-air partition coefficient greater than or equal to 7) |
| O=C(O)CCc1ccccc1 [Material 255] | K (Log of liquid dish neat product liquid-air partition coefficient greater than or equal to 7) |
| CC1(C)CCc2ccc(CCC=O)cc21 [Material 260] | K (Log of liquid dish neat product liquid-air partition coefficient greater than or equal to 7) |
| CC1(C)CCc2ccc(CCC=O)cc21 [Material 261] | K (Log of liquid dish neat product liquid-air partition coefficient greater than or equal to 7) |
| CCCCCCOC(=O)c1ccco1 [Material 275] | K (Log of liquid dish neat product liquid-air partition coefficient greater than or equal to 7) |
| CC(=O)OC1CC2CC1C1CC=CC21 (stereo not shown) [Material 281] | K (Log of liquid dish neat product liquid-air partition coefficient greater than or equal to 7) |
| O=Cc1ccc2c(c1)OCO2 [Material 287] | K (Log of liquid dish neat product liquid-air partition coefficient greater than or equal to 7) |
| CC(C)=CCC/C(C)=C/COC=O [Material 306] | K (Log of liquid dish neat product liquid-air partition coefficient greater than or equal to 7) |

Same assay, conditions: code letter within the Comment Code cell

| Compound | Log of liquid dish neat product liquid-air partition coefficient (Comment Code K/L) |
| --- | --- |
| CC(=O)[C@@]1(C)CC2=C(CCCC2(C)C)C[C@@H]1C [Material 215] | K (Log of liquid dish neat product liquid-air partition coefficient greater than or equal to 7) |
| CCC(=O)OC1CC2CCC1(C)C2(C)C (stereo not shown) [Material 228] | K (Log of liquid dish neat product liquid-air partition coefficient greater than or equal to 7) |
| CC(C)C(=O)OC1CC2CCC1(C)C2(C)C (stereo not shown) [Material 229] | K (Log of liquid dish neat product liquid-air partition coefficient greater than or equal to 7) |
| CC1C2CC(CC2C2CCC(O)CC2)C1(C)C (stereo not shown) [Material 230] | K (Log of liquid dish neat product liquid-air partition coefficient greater than or equal to 7) |
| C=CCCCCCCCCC(=O)OCCC(C)C [Material 234] | K (Log of liquid dish neat product liquid-air partition coefficient greater than or equal to 7) |
| CCCCCCCCCCCC(=O)OCCC(C)C [Material 238] | K (Log of liquid dish neat product liquid-air partition coefficient greater than or equal to 7) |
| c1ccc2c(c1)CC1COCOC21 (stereo not shown) [Material 247] | K (Log of liquid dish neat product liquid-air partition coefficient greater than or equal to 7) |
| CC(CCO)CCCC(C)(C)O (stereo not shown) [Material 249] | K (Log of liquid dish neat product liquid-air partition coefficient greater than or equal to 7) |
| CC(CO)C1CCCCCCCCCCC1 (stereo not shown) [Material 252] | K (Log of liquid dish neat product liquid-air partition coefficient greater than or equal to 7) |
| OCCCc1ccccc1 [Material 254] | K (Log of liquid dish neat product liquid-air partition coefficient greater than or equal to 7) |
| COC(OC)C(C)c1ccccc1 (stereo not shown) [Material 256] | K (Log of liquid dish neat product liquid-air partition coefficient greater than or equal to 7) |
| CCC1=C(O)C(=O)C(C)O1 (stereo not shown) [Material 259] | K (Log of liquid dish neat product liquid-air partition coefficient greater than or equal to 7) |
| CC1(C)CCc2ccc(CCC=O)cc21 [Material 260] | K (Log of liquid dish neat product liquid-air partition coefficient greater than or equal to 7) |
| CC1(C)CCc2ccc(CCC=O)cc21 [Material 261] | K (Log of liquid dish neat product liquid-air partition coefficient greater than or equal to 7) |
| CCCCCCCC(=O)OCCCCCC [Material 263] | K (Log of liquid dish neat product liquid-air partition coefficient greater than or equal to 7) |
| CCCCCCOC(=O)c1ccccc1 [Material 271] | K (Log of liquid dish neat product liquid-air partition coefficient greater than or equal to 7) |
| CC=C(C)C(=O)OCCC=CCC [Material 274] | K (Log of liquid dish neat product liquid-air partition coefficient greater than or equal to 7) |
| O=C1CCCCCCCCCCCCCCCO1 [Material 277] | K (Log of liquid dish neat product liquid-air partition coefficient greater than or equal to 7) |
| CCOC(=O)C1C2C=CC(C2)C1C(C)C (stereo not shown) [Material 280] | K (Log of liquid dish neat product liquid-air partition coefficient greater than or equal to 7) |
| CC(=O)OC1CC2CC1C1CC=CC21 (stereo not shown) [Material 281] | K (Log of liquid dish neat product liquid-air partition coefficient greater than or equal to 7) |
| CC(C=O)Cc1ccc2c(c1)OCO2 (stereo not shown) [Material 288] | K (Log of liquid dish neat product liquid-air partition coefficient greater than or equal to 7) |
| O=C1CCCCCCCCCC/C=C/CCO1 [Material 289] | K (Log of liquid dish neat product liquid-air partition coefficient greater than or equal to 7) |
| CC1CCC(C(C)(C)O)CC2=C1CCC2C (stereo not shown) [Material 292] | K (Log of liquid dish neat product liquid-air partition coefficient greater than or equal to 7) |
| CCC(=O)CCC1C(C)=CCCC1(C)C (stereo not shown) [Material 293] | K (Log of liquid dish neat product liquid-air partition coefficient greater than or equal to 7) |
| CCOC(=O)C1C(CC)=CCCC1(C)C (stereo not shown) [Material 294] | K (Log of liquid dish neat product liquid-air partition coefficient greater than or equal to 7) |
| CC1=CCC(=C(C)C)CCC(C)=CCC1 [Material 295] | K (Log of liquid dish neat product liquid-air partition coefficient greater than or equal to 7) |
| C=C1C=CC(C(C)C)CCC(C)=CCC1 (stereo not shown) [Material 296] | K (Log of liquid dish neat product liquid-air partition coefficient greater than or equal to 7) |
